From patent publication US20100204324A1, “Optically Active N-(Alpha-Mercaptopropionyl)Glycine” (priority 2007, published 2010)

Key:
Format in all cases: in vivo
[1] = test system: mice with liver injury induced by acetamidophenol; assay: Liver injury in mice induced by acetamidophenol, drugs by intravenous injection: serum biochemical indicators and liver indexes; conditions: for Liver albumin / Liver total protein / GSH: 10% liver homogenate; for Liver albumin / Liver total protein / Liver coefficient / Serum total protein / mice dead after modeling / GSH / MDA: mice, drug 800 mg/kg iv; for Liver coefficient / Serum total protein: acetamidophenol 400 mg/kg ip, 24 hours after modeling; for mice dead after modeling: acetamidophenol model; for GSH / MDA: liver
Protocol: The animals were randomly divided into the following 5 groups of 10 animals according to weight: solvent control group, model group (acetamidophenol, 400 mg/kg, ml/kg, intraperitoneal injection), tiopronin group (MPG), R-(−)-N-(α-mercaptopropionyl)glycine group, and S-(+)-N-(α-mercaptopropionyl)glycine group. After fasting for 12 h, except the solvent control group and model group were given saline by intravenous injection, the other test groups were intravenously injected drugs, and then intraperitoneally injected 400/mg/kg of acetamidophenol immediately, to induce acute liver cell injury. The animals were fed with food at 6 hours after modeling, and then fasted for 16 hours; and at 24 hours after modeling, blood were sampled by eye ball removal, centrifuged, and collected for serum. ALT, and AST were determined following the method of the kit. 10% of liver homogenate was prepared, to measure GSH. The liver and spleen were taken at the same time, weighted, and calculated for organcoefficient.

[2] = Pharmacokinetic test in the body of a test animal, plasma drug concentration by HPLC-MS (interconversion of enantiomers); conditions: each time point after administration, GITC derivatization
Text: It is found from pharmacokinetic experiment that, conversion of R-(−)-N-(α-mercaptopropionyl)glycine and S-(+)-N-(α-mercaptopropionyl)glycine to each other have not occurred in body. The specific experiment is a pharmacokinetic test in the body of a test animal, including determining the plasma drug concentration with high-performance liquid chromatography-mass spectrometry (HPLC-MS).
The process for treat a plasma sample to formulate an injected solution includes plasma acidification, extraction, and then derivatization, and is as follows: […]
ionization mode: electrospray ionization; selective ion detection; curved desolvation line (CDL); temperature: 200° C.-300° C., with 250° C. being preferred; heating block temperature: 150° C.-250° C., with 200° C. being preferred; CDL voltage: 20V-30V, with 25V being preferred; detection voltage: +1.2 kV-+1.8 kV, with +1.50 kV being preferred; flow rate of atomizing gas: 1.2 L/min-1.8 L/min, with 1.5 L/min being preferred; flow rate of drying gas: 1.5 L/min-2.5 L/min, with 2.0 L/min being preferred; detected ion: derivative of test drug [M+Na]+(m/z): 575.20; internal standard: derivative of N-isobutanoyl-D-cysteine (NIDC) [M+Na]+(m/z): 603.05; […]

[3] = test system: rats with liver injury induced by CCl4; assay: Protection against liver injury in rats induced by carbon tetrachloride, drugs given intragastrically; conditions: CCl4 model, drug 450 mg/kg ig; for Albumin / Globulin / Total protein: serum; for A/G: serum albumin/globulin
Protocol: The animals were randomly divided into the following 5 groups of 10 animals according to weight: solvent control group, model group (50% CCl4, 2 ml/kg, intraperitoneal injection), tiopronin group (MPG), R-(−)-N-(α-mercaptopropionyl)glycine group, and S-(+)-N-(α-mercaptopropionyl)glycine group. Except the solvent control group was given olive oil by intraperitoneal injection, the other test groups were intragastrically administrated drugs for 4 days, once daily, intraperitoneally injected CCl4 once on the fifth day to induce acute liver cell injury, treated with drugs 30 min before modeling (except for the model control group), and then administrated drugs once 2 hours after modeling. Then, the animals were fasted for 16 h, blood was sampled from retrobulbar venous plexus 24 hours after injecting CCl4, centrifuged, and collected for serum, and ALT, AST, albumin were determined following the method of the kit. The left lobe of liver was taken to prepare 10% of liver homogenate and measure GSH and MDA contents.

[4] = listed as S—H—N-(α-mercaptopropionyl)glycine

Row | Compound | Liver albumin [1] [mg/mL] | Liver total protein [1] [mg/mL] | Liver coefficient [1] [mg/g] | Serum total protein [1] [mg/mL] | mice dead after modeling [1] | protection against liver injury in mice induced by acetamidophenol ([1]; overall comparison with tiopronin group, 800 mg/kg iv) | presence of the other enantiomer in plasma spectrogram after individual administration (conversion in body) [2] | Albumin [3] [mg/mL] | Globulin [3] [mg/mL] | Total protein [3] [mg/mL] | GSH [1, 4] | MDA [1] [nmol/g wet weight] | MDA [1, 4] | A/G [3] | A/G ([3]; listed as tiopronin) | Albumin ([3]; listed as tiopronin) | Globulin ([3]; listed as tiopronin) | Total protein ([3]; listed as tiopronin) | GSH ([1]; listed as tiopronin) | MDA ([1]; listed as tiopronin)
1 | C[C@@H](S)C(=O)NCC(=O)O [R-(−)-N-(α-mercaptopropionyl)glycine] | 9.2 ± 1.3 | 16.5 ± 1.7 | 5.816 ± 0.613 | 43.8 ± 7.4 | no death | superior to that in tiopronin group | not obviously detected | – | – | – | – | – | – | – | – | – | – | – | – | –
2 | CC(S)C(=O)NCC(=O)O (stereo not drawn) [S-(+)-N-(α-mercaptopropionyl)glycine] | 9.1 ± 2.0 | 16.2 ± 2.9 | 6.201 ± 0.567 | 43.7 ± 5.7 | – | – | not obviously detected | 27.5 ± 1.44 | 37.2 ± 5.06 | 64.7 ± 6.40 | no such effects | 440.0 ± 134.6 | no such effects | – | – | – | – | – | – | –
3 | CC(S)C(=O)NCC(=O)O (stereo not drawn) [Tiopronin, N-(α-mercaptopropionyl)glycine] | 9.6 ± 1.1 | 15.7 ± 1.4 | 5.804 ± 0.598 | – | 4 | – | – | 26.8 ± 1.98 | 32.9 ± 4.79 | 59.8 ± 6.26 | – | 362.4 ± 98.6 | – | 0.825 ± 0.101 | no obvious effect | no obvious effect | no obvious effect | no obvious effect | no such effects | no such effects
